Earlier results on two compounds are cited in patent US5431925A, “Nutritive composition for prevention and therapy of infection diseases caused by immunosuppression” (Snow Brand Milk Products Co., Ltd., priority 1991, dated 1995).

Where only a bound is given, the exact number is not on record here.

The conditions of the data set: mouse.

Turning to `CC1=C(/C=C/C(C)=C/C=C/C(C)=C/C(=O)O)C(C)(C)CCC1` [retinoic acid], the LD50 is recorded as ≥ 4,000 mg/kg.
For the compound `CC1=C(/C=C/C(C)=C/C=C/C(C)=C/CO)C(C)(C)CCC1` [retinol], the LD50 is given as ≥ 4,100 mg/kg.
